From BindingDB's records for doi:10.3109/14756360903017122 (Indian Institute of Chemical Technology, 2010)

Target: Sucrase-isomaltase, intestinal (Rattus norvegicus, UniProt P23739)
Assay: In Vitro α-Glucosidase Inhibitory Assay
Conditions: pH 6.8
Method: Rat intestinal acetone powder in normal saline (100: 1; w/v) was sonicated thoroughly and the supernatant was used as a source of crude intestinal α-glucosidase after centrifugation. In brief, […] of test sample ( 5 mg/mL DMSO solution) was reconstituted in […] of 100 mM phosphate buffer (pH 6.8) in a 96-well microplate and incubated with […] of crude intestinal α-glucosidase for 5 min before […] substrate (5 mM pNPG prepared in same buffer) was added. Release of p-nitrophenol was measured at 405 nm spectrophotometrically (SpectraMax Plus384; Molecular Devices Corp., Sunnyvale, CA, USA) 5 min after incubation withsubstrate. Individual blanks for test samples were prepared to correct background absorbance where substrate was replaced with […] of buffer. The control samplecontained […] of dimethylsulfoxide (DMSO) in place of test sample.

Chain of Sucrase-isomaltase, intestinal (P23739 1-1013 limits assumed): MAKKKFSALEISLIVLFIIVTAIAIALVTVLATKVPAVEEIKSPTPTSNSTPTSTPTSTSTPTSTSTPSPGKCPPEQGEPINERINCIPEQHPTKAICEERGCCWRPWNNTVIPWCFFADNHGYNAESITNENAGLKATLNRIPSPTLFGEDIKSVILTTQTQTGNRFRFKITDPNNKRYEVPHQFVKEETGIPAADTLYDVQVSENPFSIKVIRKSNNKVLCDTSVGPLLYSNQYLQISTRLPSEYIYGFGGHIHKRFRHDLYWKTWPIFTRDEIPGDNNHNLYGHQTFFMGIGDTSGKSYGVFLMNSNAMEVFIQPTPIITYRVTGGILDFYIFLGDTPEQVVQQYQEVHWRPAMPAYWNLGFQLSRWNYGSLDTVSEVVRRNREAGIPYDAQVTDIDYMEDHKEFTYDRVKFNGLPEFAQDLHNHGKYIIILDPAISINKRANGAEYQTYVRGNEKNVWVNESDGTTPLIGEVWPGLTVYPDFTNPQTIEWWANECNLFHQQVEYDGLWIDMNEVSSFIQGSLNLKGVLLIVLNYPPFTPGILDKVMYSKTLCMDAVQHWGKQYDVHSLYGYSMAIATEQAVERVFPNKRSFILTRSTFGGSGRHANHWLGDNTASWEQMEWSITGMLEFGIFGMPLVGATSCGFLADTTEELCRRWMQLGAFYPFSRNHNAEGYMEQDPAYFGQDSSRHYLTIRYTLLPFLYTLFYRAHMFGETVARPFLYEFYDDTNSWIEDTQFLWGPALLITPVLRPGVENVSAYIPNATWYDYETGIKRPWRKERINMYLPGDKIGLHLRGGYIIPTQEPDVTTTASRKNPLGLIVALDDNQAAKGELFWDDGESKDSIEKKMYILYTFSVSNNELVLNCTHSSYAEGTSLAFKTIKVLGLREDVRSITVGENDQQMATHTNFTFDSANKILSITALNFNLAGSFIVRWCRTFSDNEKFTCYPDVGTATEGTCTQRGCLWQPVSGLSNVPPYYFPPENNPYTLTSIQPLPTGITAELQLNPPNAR
Chain of Sucrase-isomaltase, intestinal (P23739 1014-1841 limits assumed): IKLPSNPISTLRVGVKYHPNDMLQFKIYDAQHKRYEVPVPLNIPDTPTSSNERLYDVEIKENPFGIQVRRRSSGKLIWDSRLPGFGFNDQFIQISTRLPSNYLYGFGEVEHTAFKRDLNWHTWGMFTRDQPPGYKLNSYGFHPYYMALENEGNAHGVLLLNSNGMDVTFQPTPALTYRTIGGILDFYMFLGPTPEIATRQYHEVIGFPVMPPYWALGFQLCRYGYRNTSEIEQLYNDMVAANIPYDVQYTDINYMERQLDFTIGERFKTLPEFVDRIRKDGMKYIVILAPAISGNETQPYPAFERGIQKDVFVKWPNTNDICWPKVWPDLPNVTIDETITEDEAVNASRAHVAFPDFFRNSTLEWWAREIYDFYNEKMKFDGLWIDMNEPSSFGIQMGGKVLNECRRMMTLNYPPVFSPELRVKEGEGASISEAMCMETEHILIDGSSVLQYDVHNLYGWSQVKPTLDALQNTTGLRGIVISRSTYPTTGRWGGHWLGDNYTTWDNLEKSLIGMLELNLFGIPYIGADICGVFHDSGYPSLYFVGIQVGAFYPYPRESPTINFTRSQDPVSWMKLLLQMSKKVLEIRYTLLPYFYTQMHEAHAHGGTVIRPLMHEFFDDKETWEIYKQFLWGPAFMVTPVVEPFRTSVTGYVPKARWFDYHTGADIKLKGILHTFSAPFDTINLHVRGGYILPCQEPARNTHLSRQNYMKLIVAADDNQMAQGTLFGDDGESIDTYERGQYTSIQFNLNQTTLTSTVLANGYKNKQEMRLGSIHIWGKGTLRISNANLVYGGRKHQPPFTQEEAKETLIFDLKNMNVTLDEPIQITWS

With `O=[N+]([O-])c1ccc2[nH]c(-c3ccncc3)nc2c1` [6-Nitro-2-(4-pyridyl)-1H-benzo[d]imidazole (3e)] as the molecule, how does the IC50 read?
The IC50 was 99.4 µM.
